We go through one molecule from patent US4536400A, “Phosphonoformic acid esters” (priority 1977, dated 1985).

The nature of the data set: Acid stability test in 0.1 N HCl (t.l.c. estimate of decomposition products). As to conditions: incubated in 0.1 N HCl at 37° C. for 2 hours; 100 μg compound applied. It counts as physicochemical. The protocol:
The acid stability was investigated by dissolving 5 mg of each compound in 1 ml of 0.1 N HCl in a test tube. For use as references 0.2 ml of each solution was withdrawn, immediately treated with 0.2 ml of a 10% aqueous solution of NaHCO3 and frozen. The remaining 0.8 ml of each solution was incubated at 37° C. for 2 hours. After incubation, 0.8 ml of a 10% aqueous solution of NaHCO3 was added to each solution and the solutions were frozen. The incubated compounds and the reference compounds were lyophilized to dryness and redissolved in distilled H2 O, 0.2 ml and 1.0 ml respectively, for each reference solution and incubated solution. The solutions were applied to silica gel (Merck PF254, 20×20 cm) and polyethylene imine (Macherey-Nagel PEI, 20×20 cm) thin layer plates. A total of 20 μl of the reference solutions (100 μg compound) and 25 μl of the incubated solutions ([…]) were applied. To each plate was also added, as references, solutions of phosphorous acid (H2 HPO3) (5 and 20 μg) and of trisodiumphosphonoformate (5 and 20 μg). (Decomposition of phosphonoformic acid at low pH produces phosphorous acid).
The silica gel plates were prepared in duplicate and eluted with a solution composed of methanol--10% aq ammonia--trichloroacetic acid--water (50--15--5--3, v/v) and the polyethylene imine plates were eluted with a 1M aq lithium chloride solution. […]

Take `O=C(O)P(=O)(O)O` [EHB 776, trisodium phosphonoformate]: the “Estimated formation of phosphorous acid” value is 20 µg.
